The values that follow are results of earlier work, collected in patent US7781642B2, “Animal model having a chimeric human liver and susceptible to human hepatitis C virus infection” (KMT Hepatech, Inc., priority 2000, dated 2010).

One data set relates to HBV. The note with it: post needle-stick exposure; cited from earlier work.
The test system of another data set is HCV. The note with it: HCV patients; cited from earlier work.

Hepatitis B Immunoglobulin [HBIg]: the “Cases in which transmission of HBV was prevented” value with HBV is on record as 80%.

For interferon and ribavirin, the Sustained response rate entry with HCV is reported as “up to 40%”.
